Each structure is given as a SMILES string.

Activity data for one molecule are collected here from PMC6611227 (Frontiers in Microbiology, 2019).

In this assay the target is T1, StDHODH (dihydroorotate dehydrogenase) (Solanum tuberosum, UniProt M1BCR0, I273V/I299V/P120T/P359Q).
T1 construct: gene LOC102578881
T1 sequence (M1BCR0 70-460 P120T/I273V/I299V/P359Q): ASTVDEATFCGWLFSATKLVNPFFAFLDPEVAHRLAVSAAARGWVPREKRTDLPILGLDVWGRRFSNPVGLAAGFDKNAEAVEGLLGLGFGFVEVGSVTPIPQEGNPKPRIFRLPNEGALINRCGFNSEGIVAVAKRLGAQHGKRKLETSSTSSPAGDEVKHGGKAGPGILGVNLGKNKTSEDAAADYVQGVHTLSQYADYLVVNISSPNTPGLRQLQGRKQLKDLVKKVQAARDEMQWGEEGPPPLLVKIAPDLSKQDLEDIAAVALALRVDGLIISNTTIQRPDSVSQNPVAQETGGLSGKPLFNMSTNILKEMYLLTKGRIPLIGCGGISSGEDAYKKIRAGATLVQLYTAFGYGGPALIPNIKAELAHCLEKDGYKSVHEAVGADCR
The assay can be described thus: biochemical. The note with it: read-out: Activity % StDHODH.

Consider `COc1c(-c2ccccc2)ccc(NC(=O)C(C#N)=C(C)O)c1Cl` [compound 19, N-(3-chloro-2-methoxybiphenyl-4-yl)-2-cyano-3-hydroxybut-2-enamide], for which the activity at 500 µM was 0%.
